The text below walks through data of patent publication US11136351B2 (priority 2016, dated 2021).

The conditions of this data set: pH 1.2.

Residues, ends and D or L forms follow the SMILES beside them.

Turning to `N=C(N)NCCC[C@@H]1NC(=O)[C@@H]2CCCN2C(=O)[C@H](CC(=O)O)NC(=O)[C@H](CO)NC(=O)[C@H](CO)NC(=O)[C@@H](NC(=O)CN)CSSC[C@@H](C(N)=O)NC1=O` [[Ser^3]Vc1.1(1-8)] (HELM PEPTIDE1{G.C.S.S.D.P.R.C.[am]}$PEPTIDE1,PEPTIDE1,2:R3-8:R3$$$V2.0), the “stability in simulated gastric fluid” value is “good stability”.
